21 molecules from patent US12643881B2, “Bicyclic amine CDK12 inhibitors” (Incyte Corporation, priority 2021, dated 2026) can be followed below.

The target of this assay is T1, CDK12 complexed with Cyclin K (Homo sapiens, UniProt Q9NYV4).
T1 construct: GST (N)
T1 sequence (Q9NYV4 whole entry): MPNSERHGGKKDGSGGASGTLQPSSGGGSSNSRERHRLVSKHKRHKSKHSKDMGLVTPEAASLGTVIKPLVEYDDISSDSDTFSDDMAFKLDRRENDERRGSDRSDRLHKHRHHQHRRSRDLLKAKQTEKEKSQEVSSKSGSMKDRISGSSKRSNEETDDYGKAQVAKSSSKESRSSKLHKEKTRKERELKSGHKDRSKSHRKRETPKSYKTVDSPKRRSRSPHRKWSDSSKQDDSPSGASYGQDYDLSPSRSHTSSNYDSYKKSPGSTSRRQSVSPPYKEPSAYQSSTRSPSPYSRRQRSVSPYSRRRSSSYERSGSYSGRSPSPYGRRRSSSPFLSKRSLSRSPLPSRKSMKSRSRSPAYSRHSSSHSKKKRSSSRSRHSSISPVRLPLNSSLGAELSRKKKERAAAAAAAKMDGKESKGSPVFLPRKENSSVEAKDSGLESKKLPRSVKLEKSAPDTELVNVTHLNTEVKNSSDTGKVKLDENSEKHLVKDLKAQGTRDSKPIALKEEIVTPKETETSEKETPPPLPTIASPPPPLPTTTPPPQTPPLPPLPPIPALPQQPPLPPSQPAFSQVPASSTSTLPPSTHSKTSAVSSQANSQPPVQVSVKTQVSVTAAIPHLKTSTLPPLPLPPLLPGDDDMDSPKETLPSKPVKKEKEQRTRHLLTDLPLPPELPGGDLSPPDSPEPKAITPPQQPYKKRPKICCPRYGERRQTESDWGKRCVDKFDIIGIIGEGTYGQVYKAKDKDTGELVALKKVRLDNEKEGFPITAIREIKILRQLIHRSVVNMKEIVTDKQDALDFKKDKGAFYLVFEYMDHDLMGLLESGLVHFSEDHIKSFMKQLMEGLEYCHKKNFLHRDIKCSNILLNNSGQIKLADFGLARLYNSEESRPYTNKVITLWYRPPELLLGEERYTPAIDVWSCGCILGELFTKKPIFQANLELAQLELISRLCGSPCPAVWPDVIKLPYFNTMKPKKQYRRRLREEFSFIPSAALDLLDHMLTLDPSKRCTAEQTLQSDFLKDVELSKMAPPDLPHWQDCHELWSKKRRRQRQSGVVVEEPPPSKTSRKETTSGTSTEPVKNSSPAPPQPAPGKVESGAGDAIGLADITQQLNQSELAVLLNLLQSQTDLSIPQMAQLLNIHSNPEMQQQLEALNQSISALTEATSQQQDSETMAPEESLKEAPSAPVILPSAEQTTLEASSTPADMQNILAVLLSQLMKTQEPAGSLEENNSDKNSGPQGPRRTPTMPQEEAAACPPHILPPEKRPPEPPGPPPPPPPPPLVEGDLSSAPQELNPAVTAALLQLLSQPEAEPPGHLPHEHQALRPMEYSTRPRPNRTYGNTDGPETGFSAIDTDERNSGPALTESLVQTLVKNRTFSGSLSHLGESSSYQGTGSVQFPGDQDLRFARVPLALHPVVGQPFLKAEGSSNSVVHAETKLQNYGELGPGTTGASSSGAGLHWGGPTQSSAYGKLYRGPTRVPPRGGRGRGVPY
T1 sequence (O75909 whole entry partner): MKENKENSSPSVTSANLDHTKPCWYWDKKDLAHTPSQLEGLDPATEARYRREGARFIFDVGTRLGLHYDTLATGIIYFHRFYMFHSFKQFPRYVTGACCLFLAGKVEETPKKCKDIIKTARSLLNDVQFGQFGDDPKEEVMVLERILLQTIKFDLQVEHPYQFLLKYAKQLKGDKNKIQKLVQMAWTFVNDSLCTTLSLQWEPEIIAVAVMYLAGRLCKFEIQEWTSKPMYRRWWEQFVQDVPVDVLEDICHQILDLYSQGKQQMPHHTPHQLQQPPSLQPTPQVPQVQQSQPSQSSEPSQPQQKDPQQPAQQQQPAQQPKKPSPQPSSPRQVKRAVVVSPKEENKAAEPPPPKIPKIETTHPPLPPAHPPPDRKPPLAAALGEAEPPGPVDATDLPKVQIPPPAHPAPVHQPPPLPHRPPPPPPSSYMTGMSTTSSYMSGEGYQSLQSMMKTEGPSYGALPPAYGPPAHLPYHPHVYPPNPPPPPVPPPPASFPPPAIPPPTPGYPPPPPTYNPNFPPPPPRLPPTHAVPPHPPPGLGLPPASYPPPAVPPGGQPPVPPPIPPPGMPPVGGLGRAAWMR
The assay can be described thus: Alternative CDK Enzymatic Assays (HTRF, pre-incubation with compounds and 1 mM ATP), Example A2. The settings on record: enzyme pre-incubated with compounds and 1 mM ATP for 60 minutes; reaction 120 minutes at 25° C. In kind it is biochemical. From the text:
Example A2. Alternative CDK Enzymatic Assays
The following activity of the CDK enzymes in complex with their respective cyclins we assayed: CDK1 complexed with Cyclin B1; CDK2 complexed with Cyclin E1; CDK4 complexed with Cyclin D1; CDK6 complexed with Cyclin D1; CDK6 complexed with Cyclin D3; CDK9 complexed with Cyclin T1; CDK7 complexed with Cyclin H/MAT1; CDK2 complexed with Cyclin A2; CDK5 complexed with p35; CDK12 complexed with Cyclin K; CDK13 complexed with Cyclin K. These in vitro enzyme activity are assayed using homogeneous time-resolved energy transfer (HTRF), which measures phosphorylation of a peptide substrate. The LANCER Ultra kinase assay (PerkinElmer) uses a ULight™-labeled EIF4E-binding protein 1 (THR37/46) peptide (DYSTTPGGTLFSTTPGTRI (SEQ ID NO: 1)) substrate and a Europium-labeled anti-phospho-4E-BP1 antibody (CDK2, CDK1, CDK4, CDK6, CDK9, CDK12, CDK13) or ULight™-labeled Myelin Basic Protein peptide (VTPRTPPP (SEQ ID NO: 2)) substrate and a Europium-labeled anti-phospho-MBP antibody (CDK7). Each CDK enzyme activity assays utilized human CDK co-expressed as N-terminal GST-tagged protein with its full length cyclin partner using a baculovirus expression system.
Enzyme was pre-incubated with compounds and 1 mM ATP for 60 minutes (CDK 1, 2, 4, 6, 9, 7, 12, 13) prior to the addition of ATP and Ulight-peptide (1 mM and 50 nM final, respectively), in assay buffer containing 50 mM HEPES pH 7.5, 1 mM EGTA, 10 mM MgCl2, 2 mM DTT, 0.05 mg/mL BSA, and 0.01% Tween 20. The reaction was then incubated for 120 minutes at 25° C. incubator. The reactions were stopped by the addition of EDTA and Europium labeled antibody, for a final concentration of 15 mM and 0.5-1.5 nM, respectively. HTRF signals were read after 15-120 minutes. A ratio of fluorescence transferred to the labeled substrate (665 nm) relative to fluorescence of the Europium donor (620 nm) represents the extent of phosphorylation. Ratios for treated wells were normalized to DMSO only (100% activity) and no enzyme (0% activity) controls. Normalized data was analyzed using a three or four parameter dose response curve to determine IC50 for each compound and are shown in Table B. Control reference inhibitors were included on each plate.
(TR-FRET usually uses a lanthanide donor and a delayed reading to cut background.)
For orientation: IC50 means the concentration that gives 50% inhibition. Take `C=CC(=O)N[C@@H]1CCN(c2nccn3c(N4C[C@H](F)C[C@@H](Nc5ncc(C(F)(F)F)cn5)C4)ncc23)C1` [Example 86, N—((R)-1-(3-((3R,5R)-3-Fluoro-5-((5-(trifluoromethyl)pyrimidin-2-yl)amino)piperidin-1-yl)imidazo[1,5-a]pyrazin-8-yl)pyrrolidin-3-yl)acrylamide]: the IC50 fell in the range of 50 to 500 nM. Consider `C=CC(=O)N1CCCCC1c1ccc2c(c1)nc(N1C[C@H](O)C[C@@H](Nc3ncc(C(F)(F)F)cn3)C1)n2C` (stereo partly drawn) [Example 87, 1-(2-(2-((3R,5R)-3-Hydroxy-5-((5-(trifluoromethyl)pyrimidin-2-yl)amino)piperidin-1-yl)-1-methyl-1H-benzo[d]imidazol-5-yl)piperidin-1-yl)prop-2-en-1-one], for which the IC50 fell in the range of 50 to 500 nM. As for `C=CC(=O)Nc1cc2nc(N3C[C@H](F)C[C@@H](Nc4ncc(C#N)cn4)C3)n(C)c2cc1C` [Example 96, N-(2-((3R,5R)-3-((5-cyanopyrimidin-2-yl)amino)-5-fluoropiperidin-1-yl)-1,6-dimethyl-1H-benzo[d]imidazol-5-yl)acrylamide], the figure is 50 to 500 nM. For the molecule `C=CC(=O)Nc1cc2nc(N3C[C@H](F)C[C@@H](Nc4ncc(C(F)(F)F)cn4)C3)n(C)c2cc1C` [Example 100, N-(2-((3R,5R)-3-fluoro-5-((5-(trifluoromethyl)pyrimidin-2-yl)amino)piperidin-1-yl)-1,6-dimethyl-1H-benzo[d]imidazol-5-yl)acrylamide], the IC50 is below 50 nM. Take `C=CC(=O)Nc1cc2nc(N3CCC[C@@H](Nc4ncc(C(F)(F)F)cn4)C3)n(C)c2cc1C` [Example 102, (R)—N-(1,6-Dimethyl-2-(3-((5-(trifluoromethyl)pyrimidin-2-yl)amino)piperidin-1-yl)-1H-benzo[d]imidazol-5-yl)acrylamide]: the IC50 is below 50 nM. In the case of `C=CC(=O)N1[C@H](C)CN(c2nccn3c(N4C[C@H](F)C[C@@H](Nc5ncc(C(F)(F)F)cn5)C4)ncc23)C[C@@H]1C` [Example 104, 1-((2S,6R)-4-(3-((3R,5R)-3-Fluoro-5-((5-(trifluoromethyl)pyrimidin-2-yl)amino)piperidin-1-yl)imidazo[1,5-a]pyrazin-8-yl)-2,6-dimethylpiperazin-1-yl)prop-2-en-1-one] it was 50 to 500 nM; in that of `C=CC(=O)N1CCC12CN(c1nccn3c(N4C[C@H](F)C[C@@H](Nc5ncc(C(F)(F)F)cn5)C4)ncc13)C2` [Example 105, 1-(6-(3-((3R,5R)-3-Fluoro-5-((5-(trifluoromethyl)pyrimidin-2-yl)amino)piperidin-1-yl)imidazo[1,5-a]pyrazin-8-yl)-1,6-diazaspiro[3.3]heptan-1-yl)prop-2-en-1-one], below 50 nM.

For the molecule `CC#CC(=O)N1C[C@@H]2C[C@H]1CN2c1nccn2c(N3C[C@H](F)C[C@@H](Nc4ncc(C(F)(F)F)cn4)C3)ncc12` [Example 106, 1-((1S,4S)-5-(3-((3R,5R)-3-Fluoro-5-((5-(trifluoromethyl)pyrimidin-2-yl)amino)piperidin-1-yl)imidazo[1,5-a]pyrazin-8-yl)-2,5-diazabicyclo[2.2.1]heptan-2-yl)but-2-yn-1-one], the IC50 was 50 to 500 nM. Regarding `C=CC(=O)N1C[C@@H]2C[C@H]1CN2c1nccn2c(N3C[C@H](F)C[C@@H](Nc4ncc(C(F)(F)F)cn4)C3)ncc12` [Example 107, 1-((1S,4S)-5-(3-((3R,5R)-3-Fluoro-5-((5-(trifluoromethyl)pyrimidin-2-yl)amino)piperidin-1-yl)imidazo[1,5-a]pyrazin-8-yl)-2,5-diazabicyclo[2.2.1]heptan-2-yl)prop-2-en-1-one], the IC50 fell in the range of 50 to 500 nM. Take `C=CC(=O)N1CCCCC1c1nccn2c(N3CCC[C@@H](Nc4ncc(C(F)(F)F)cn4)C3)ncc12` (stereo partly drawn) [Example 108, 1-(2-(3-((R)-3-((5-(Trifluoromethyl)pyrimidin-2-yl)amino)piperidin-1-yl)imidazo[1,5-a]pyrazin-8-yl)piperidin-1-yl)prop-2-en-1-one]: the concentration for half-maximal inhibition (IC50) lay within 50 to 500 nM. As for `C=CC(=O)N1CCC(c2nccn3c(N4CCC[C@@H](Nc5ncc(C(F)(F)F)cn5)C4)ncc23)CC1` [Example 110, (R)-1-(4-(3-(3-((5-(Trifluoromethyl)pyrimidin-2-yl)amino)piperidin-1-yl)imidazo[1,5-a]pyrazin-8-yl)piperidin-1-yl)prop-2-en-1-one], the figure is 50 to 500 nM; as for `C=CC(=O)Nc1cc2nc(N3C[C@H](Nc4ncc(C(F)(F)F)cn4)C[C@@H](OC)C3)n(C)c2cc1C` [Example 111, N-(2-((3R,5R)-3-Methoxy-5-((5-(trifluoromethyl)pyrimidin-2-yl)amino)piperidin-1-yl)-1,6-dimethyl-1H-benzo[d]imidazol-5-yl)acrylamide], 50 to 500 nM; as for `Cc1cc2c(cc1NC(=O)/C=C/C(C)(C)O)nc(N1C[C@H](F)C[C@@H](Nc3ncc(C(F)(F)F)cn3)C1)n2C` [Example 112, (E)-N-(2-((3R,5R)-3-Fluoro-5-((5-(trifluoromethyl)pyrimidin-2-yl)amino)piperidin-1-yl)-1,6-dimethyl-1H-benzo[d]imidazol-5-yl)-4-hydroxy-4-methylpent-2-enamide], above 500 nM. In the case of `Cc1cc2c(cc1NC(=O)C#CC(C)(C)O)nc(N1C[C@H](F)C[C@@H](Nc3ncc(C(F)(F)F)cn3)C1)n2C` [Example 113, N-(2-((3R,5R)-3-Fluoro-5-((5-(trifluoromethyl)pyrimidin-2-yl)amino)piperidin-1-yl)-1,6-dimethyl-1H-benzo[d]imidazol-5-yl)-4-hydroxy-4-methylpent-2-ynamide] it was below 50 nM; in that of `COCC#CC(=O)Nc1cc2nc(N3C[C@H](F)C[C@@H](Nc4ncc(C(F)(F)F)cn4)C3)n(C)c2cc1C` [Example 114, N-(2-((3R,5R)-3-Fluoro-5-((5-(trifluoromethyl)pyrimidin-2-yl)amino)piperidin-1-yl)-1,6-dimethyl-1H-benzo[d]imidazol-5-yl)-4-methoxybut-2-ynamide], below 50 nM.

`Cc1cc2c(cc1NC(=O)C#CCO)nc(N1C[C@H](F)C[C@@H](Nc3ncc(C(F)(F)F)cn3)C1)n2C` [Example 115, N-(2-((3R,5R)-3-Fluoro-5-((5-(trifluoromethyl)pyrimidin-2-yl)amino)piperidin-1-yl)-1,6-dimethyl-1H-benzo[d]imidazol-5-yl)-4-hydroxybut-2-ynamide]: the IC50 was below 50 nM. As to `CC#CC(=O)Nc1cc2nc(N3C[C@H](F)C[C@@H](Nc4ncc(C(F)(F)F)cn4)C3)n(C)c2cc1C` [Example 116, N-(2-((3R,5R)-3-Fluoro-5-((5-(trifluoromethyl)pyrimidin-2-yl)amino)piperidin-1-yl)-1,6-dimethyl-1H-benzo[d]imidazol-5-yl)but-2-ynamide], the IC50 fell in the range of 50 to 500 nM. In the case of `C=C(F)C(=O)Nc1cc2nc(N3C[C@H](F)C[C@@H](Nc4ncc(C(F)(F)F)cn4)C3)n(C)c2cc1C` [Example 117, 2-Fluoro-N-(2-((3R,5R)-3-fluoro-5-((5-(trifluoromethyl)pyrimidin-2-yl)amino)piperidin-1-yl)-1,6-dimethyl-1H-benzo[d]imidazol-5-yl)acrylamide] it was 50 to 500 nM.

As to `Cc1cc2c(cc1NC(=O)/C=C/CN1CCCCC1)nc(N1C[C@H](F)C[C@@H](Nc3ncc(C(F)(F)F)cn3)C1)n2C` [Example 118, (E)-N-(2-((3R,5R)-3-Fluoro-5-((5-(trifluoromethyl)pyrimidin-2-yl)amino)piperidin-1-yl)-1,6-dimethyl-1H-benzo[d]imidazol-5-yl)-4-(piperidin-1-yl)but-2-enamide], the half-maximal inhibitory concentration (IC50) is above 500 nM. As for `Cc1cc2c(cc1NC(=O)/C=C\CN(C)C)nc(N1C[C@H](F)C[C@@H](Nc3ncc(C(F)(F)F)cn3)C1)n2C` [Example 119, (Z)-4-(Dimethylamino)-N-(2-((3R,5R)-3-fluoro-5-((5-(trifluoromethyl)pyrimidin-2-yl)amino)piperidin-1-yl)-1,6-dimethyl-1H-benzo[d]imidazol-5-yl)but-2-enamide], the figure is above 500 nM; as for `Cc1cc2c(cc1NC(=O)/C=C/CN(C)C)nc(N1C[C@H](F)C[C@@H](Nc3ncc(C(F)(F)F)cn3)C1)n2C` [Example 120, (E)-4-(Dimethylamino)-N-(2-((3R,5R)-3-fluoro-5-((5-(trifluoromethyl)pyrimidin-2-yl)amino)piperidin-1-yl)-1,6-dimethyl-1H-benzo[d]imidazol-5-yl)but-2-enamide], above 500 nM.
